Peptide text beside a SMILES is read from it.
Key:
sweating of underarm = experiment: Topical application to underarm, perspiration; assay type: in vivo, human; details: 0.5% (w/v) in WEP442 pH 6.7 after shower
Source text: A subject, routinely took a shower every morning, then topically applied a conventional antiperspirant product on the underarm skin to prevent perspiration. To test the efficacy of the N-acyldipeptide derivative of the present invention, the subject after the shower, topically applied 0.5% (w/v) N—Ac-L-Tyr-L-Tyr-NH2 in WEP442, pH 6.7 (Example 5) on the left underarm and a control vehicle WEP442 on the right underarm. After two hours, there was profuse sweating in the right underarm as evidenced by the wet shirt in the armpit area. In contrast, there was no sweating in the left underarm as shown by the dry shirt in the armpit area. The left underarm was dry for the next 6-8 hours.

varicose veins = experiment: Topical treatment of varicose veins; assay type: in vivo, human; details: 0.5% (w/v) in WEP442 topically twice daily, right lower leg, end of four weeks
Source text: A subject had multiple varicose veins in their right lower leg for many years resistant to any kind of topical treatments including high potency alpha-hydroxyacids. The lesions of varicose veins covered an area of skin measuring 5 cm×10 cm and appeared more prominent with advancing age. The subject topically applied twice daily 0.5% (w/v) N—Ac-L-Tyr-L-Tyr-NH2 in WEP442 solution as prepared in Example 5. […] It is believed that continued topical application will eradicate the varicose veins.

muscle strength = experiment: Pushup performance after topical application to upper chest; assay type: in vivo, human; details: 0.5% (w/v) in WEP442 pH 6.9 on upper chest about 30 minutes before exercise; routinely about 100
Protocol: A subject, performed pushups routinely with a maximal number of about 100 in one hour. The subject topically applied 0.5% (w/v) N—Ac-L-Tyr-L-Tyr-NH2 in WEP442, pH 6.9 solution as prepared in Example 5 to ease the tight muscles on the upper chest about 30 minutes before the exercise. The subject was surprised to find that after the topical application they could now perform pushups with a maximal number of about 200 in one hour without feeling tired. The subject repeated the performance next day with the same enhanced result. To make sure that the enhanced effect on the muscles was not due to the vehicle solution, in the following day the subject topically applied WEP442 solution to the same upper chest about 30 minutes before the exercise. This time the subject could not perform the same number of pushups as before.

[1] = test system: near-sightedness (myopia); experiment: Topical application around the eyes, eye vision (myopia); assay type: in vivo, human; details: person
Source text: Typical examples of improving eye vision are described as follows.
Each time their vision in both eyes got worse, and they required changes in contact lenses in past years. This time, 6 weeks before their checkup, the subject topically applied twice daily 0.5% (w/v) N—Ac-L-Tyr-L-Tyr-NH2 in WEP442, pH 6.7 (Example 5) on the skin around and outside of eye areas and periorbital regions for 6 weeks.
Each time their vision in both eyes worsened, and they required changes in the prescription for their contact lenses in the past years. This time, one month before their checkup, the subject topically applied once daily 0.5% (w/v) N—Ac-L-Tyr-L-Tyr-NH2 in WEP442, pH 6.7 (Example 5) on the skin around and outside of eye areas and periorbital regions for 4 weeks.

[2] = test system: osteoarthritis of both knees; experiment: Intra-articular injections in knee osteoarthritis; assay type: in vivo, human
Protocol: Bioactive dipeptide derivative of the present invention as potential treatment of knee osteoarthritis by intra-articular injections.
A subject had severe osteoarthritis of both knees for four and half years. Prior therapy had included intra-articular injections of corticosteroids and hyaluronic acid as well as celecoxib (Celebrex) orally (200 mg) twice daily. Such therapy had provided only mild transitory relief of knee pain and edema, and edema of lower legs.
Intra-articular injections of 0.2% (w/v) N—Ac-L-Val-L-Ala-NH2 in water, 1 ml (2 mg) as prepared in Example 22 were administered to each knee. The pains in both knees disappeared 10-15 minutes after the injections, and the relief of pains lasted for 24 hours. Edema and inflammation of the knees and lower legs had diminished for approximately the same 24 hour period. Repeat injections of the same composition were administered once a week for five weeks to provide continued relief of pain, edema and inflammation.
In another trial, intra-articular injections of 0.2% (w/v) N—Ac-L-Val-L-Ala-NH2 with 1% (w/v) methyl cellulose in water, 0.4 ml (0.8 mg) as prepared in Example 22 were also administered to each knee at different times. The pains in both knees disappeared 10-15 minutes after the injections, and the relief of pains lasted for 24 hours. Edema and inflammation of the knees and lower legs had diminished for approximately the same 24 hour period.
In yet another embodiment, the volunteer subject injected intra-articularly into a knee joint a test composition containing a bioactive dipeptide derivative of the present invention to improve and reduce arthritic inflammation and pain of the joint.

[3] = test system: interleukin-6 (IL-6) in THP-1 leukemia cells; experiment: In vitro screen for anti-inflammatory effects: angiocidin-induced IL-6 in THP-1 cells (ELISA); assay type: cell-based, human; details: 100 μg/ml for 24 hours, then angiocidin 10 μg/ml for 24 hours
Protocol: A typical in vitro screen for anti-inflammatory effects was carried out as follows.
THP-1 leukemia cells (monocytic leukemic human cell line) were cultured and either untreated or treated with a bioactive dipeptide derivative (100 μg/ml) of the present invention for 24 hours. The untreated or treated leukemia cells were then treated with angiocidin (10 μg/ml) for 24 hours to induce interleukin-6 (IL-6) which was an indicator of the inflammation. The induced IL-6 was measured quantitatively by ELISA (enzyme-linked immunosorbent assay). […] Therefore, the bioactive dipeptide derivatives of the present invention, such as N—Ac-L-Val-L-Ala-NH2, have the potential use as nonsteroidal anti-inflammatory substances.

[4] = test system: MB231 breast cancer cells; experiment: In vitro screen for anti-tumor effects: proliferation of MB231 cells (MTS); assay type: cell-based; details: 20 μg/ml, end of 3 days of incubation, MTS absorbance at 490 nm vs water control
Protocol: A typical in vitro screen for anti-tumor or anti-cancer effects was carried out as follows.
An aliquot of 2,000 MB231 breast cancer cells (breast carcinoma cells) in 100 μl DMEM complete media (Sigma Chemical Co.) was plated in a 96 well plate containing at a concentration of 20 μg/ml a test substance or control water. To measure proliferation of the cancer cells, an aliquot of 20 μl of MTS reagent (Promega Co.) was added to each well and the cells were incubated at […] for a total of three days. The cells rapidly metabolized MTS reagent and the metabolized MTS reagent was measured at 490 nm at the end of days 1, 2 and 3. The reading was proportional to the number of cancer cells. The decrease in absorbance at each time point indicated fewer cancer cells. At the end of day 3, the decrease in absorbance with respect to the control indicated the inhibition by the test substance.

[5] = 0.2% (w/v) in water, 1 ml (2 mg) intra-articular per knee
[6] = 0.2% (w/v) with 1% (w/v) methyl cellulose in water, 0.4 ml (0.8 mg) intra-articular per knee

Row | SMILES | time the treated underarm stayed dry (sweating of underarm) | sweating of treated left underarm (sweating of underarm; after two hours, vehicle underarm profuse sweating) | appearance of varicose vein lesions (varicose veins) | maximal number of pushups in one hour (muscle strength) | vision in both eyes at yearly checkup ([1]; 0.5% (w/v) in WEP442 pH 6.7 once daily on skin around eyes for 4 weeks) | vision in both eyes at yearly checkup ([1]; 0.5% (w/v) in WEP442 pH 6.7 twice daily on skin around eyes for 6 weeks) | duration of relief of pains [2, 5] | period of diminished edema and inflammation of knees and lower legs [2, 5] | time after injection until pains in both knees disappeared [2, 5] | duration of relief of pains [2, 6] | period of diminished edema and inflammation of knees and lower legs [2, 6] | time after injection until pains in both knees disappeared [2, 6] | inhibition of the production of IL-6 [3] | inhibition of the growth of breast cancer cells [4]
1 | CC(=O)N[C@@H](Cc1ccc(O)cc1)C(=O)N[C@@H](Cc1ccc(O)cc1)C(N)=O [N-Ac-L-Tyr-L-Tyr-NH2] (Ac-Tyr-Tyr-NH2) | 6 to 8 h | no sweating | appeared less prominent | about 200 | did not worsen | did not worsen |  |  |  |  |  |  |  | 
2 | CC(=O)N[C@H](C(=O)N[C@@H](C)C(N)=O)C(C)C [N-Ac-L-Val-L-Ala-NH2] (Ac-Val-Ala-NH2) |  |  |  |  |  |  | 24 h | ~24 h | 10 to 15 min | 24 h | ~24 h | 10 to 15 min | approximately 70% | approximately 12%
